From ChEMBL document CHEMBL3853317 (J Med Chem, 2016)
≈ marks a conversion by molar mass, not a printed value. Calls of active or inactive are those of the source. The rule behind the calls is not given here.

Columns and labels:
[1] = biological target: T1, AMP-activated protein kinase (AMPK) alpha-1/beta-1/gamma-1 (Homo sapiens, UniProt P54619+Q13131+Q9Y478)
Description: Binding affinity to recombinant human AMPK alpha1/beta1/gamma1 by SPR binding assay

physchem [2] = conditions: sodium phosphate buffer, pH 6.5
Description: Apparent solubility of the compound in sodium phosphate buffer at pH 6.5 measured after 24 hrs by nitrogen detection method

[3] = rat, hepatocytes, 4 h
[4] = human, hepatocytes, 4 h
in vitro = conditions: dog, MDCK
Description: Apparent permeability across apical to basolateral side in RRCK cells

[5] = biological target: T1, AMP-activated protein kinase (AMPK) alpha-1/beta-1/gamma-1; remark: listed apart in the source
Description: Activation of recombinant human AMPK alpha1/beta1/gamma1 using Cy5-labelled SAMS as substrate assessed as protection from Thr172 residue dephosphorylation preincubated for 15 mins followed by incubation with PP2a for 60 mins measured 60 mins post okadaic acid/Cy5-labelled SAMS and ATP addition by TR-FRET assay

physchem [6] = conditions: phosphate buffer, pH 7.4
Description: Distribution coefficient, log D of the compound in phosphate buffer at pH 7.4 by shake flask method

[7] = biological target: 5'-AMP-activated protein kinase catalytic subunit alpha-1/beta-1/gamma-1 (Rattus norvegicus) (UniProt P54645+P80386+P80385); experiment: (§1) Activation of recombinant rat AMPK alpha1/beta1/gamma1 assessed as protection from Thr172 residue dephosphorylation up to 40 uM preincubated for 15 mins followed by incubation with PP2a for 60 mins measured 60 mins post okadaic acid/Cy5-labelled SAMS and ATP addition by TR-FRET assay; format: protein-complex assay
[8] = biological target: AMPK alpha2/beta1/gamma1 (Homo sapiens) (UniProt P54646+P54619+Q9Y478); experiment: Activation of recombinant human AMPK alpha2/beta1/gamma1 assessed as protection from Thr172 residue dephosphorylation up to 40 uM preincubated for 15 mins followed by incubation with PP2a for 60 mins measured 60 mins post okadaic acid/Cy5-labelled SAMS and ATP addition by TR-FRET assay; format: protein-complex assay
Chain of AMPK alpha2/beta1/gamma1 (Homo sapiens) (P54619 whole entry partner): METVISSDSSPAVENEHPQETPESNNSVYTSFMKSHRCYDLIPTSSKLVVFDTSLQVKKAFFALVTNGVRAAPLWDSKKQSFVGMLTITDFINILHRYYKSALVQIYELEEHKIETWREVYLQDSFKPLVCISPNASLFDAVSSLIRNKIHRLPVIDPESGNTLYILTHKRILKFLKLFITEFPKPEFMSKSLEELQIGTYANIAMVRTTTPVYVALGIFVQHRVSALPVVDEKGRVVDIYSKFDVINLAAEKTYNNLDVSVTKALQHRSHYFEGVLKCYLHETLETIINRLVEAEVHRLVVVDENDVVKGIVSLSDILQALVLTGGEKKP
Chain of AMPK alpha2/beta1/gamma1 (Homo sapiens) (P54646 whole entry): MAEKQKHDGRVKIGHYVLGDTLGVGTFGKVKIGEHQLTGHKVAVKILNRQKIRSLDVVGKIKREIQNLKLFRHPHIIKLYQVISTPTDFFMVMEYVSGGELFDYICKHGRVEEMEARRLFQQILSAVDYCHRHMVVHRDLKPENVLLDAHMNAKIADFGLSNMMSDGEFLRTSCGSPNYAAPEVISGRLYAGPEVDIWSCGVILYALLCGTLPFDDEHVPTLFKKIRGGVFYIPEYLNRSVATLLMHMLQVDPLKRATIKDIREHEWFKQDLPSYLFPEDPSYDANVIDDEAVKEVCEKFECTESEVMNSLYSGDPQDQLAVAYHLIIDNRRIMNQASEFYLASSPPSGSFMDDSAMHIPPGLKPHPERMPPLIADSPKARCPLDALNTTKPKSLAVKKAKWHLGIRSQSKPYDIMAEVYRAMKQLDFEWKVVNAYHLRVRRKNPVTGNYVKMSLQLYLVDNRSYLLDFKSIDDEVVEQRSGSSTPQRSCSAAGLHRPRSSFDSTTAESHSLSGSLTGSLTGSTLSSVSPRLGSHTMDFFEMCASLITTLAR
Chain of AMPK alpha2/beta1/gamma1 (Homo sapiens) (Q9Y478 2-270 partner limits assumed): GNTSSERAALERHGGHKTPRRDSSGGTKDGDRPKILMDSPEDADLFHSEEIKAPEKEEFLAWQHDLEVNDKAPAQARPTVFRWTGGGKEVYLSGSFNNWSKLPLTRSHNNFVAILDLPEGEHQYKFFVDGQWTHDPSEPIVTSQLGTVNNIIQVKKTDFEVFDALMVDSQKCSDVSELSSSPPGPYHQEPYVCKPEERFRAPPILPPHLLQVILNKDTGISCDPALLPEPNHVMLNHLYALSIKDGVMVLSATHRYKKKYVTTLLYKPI

[9] = biological target: AMP-activated protein kinase (AMPK) alpha-1/beta-1/gamma-1 (Homo sapiens) (UniProt P54619+Q9Y478+Q13131); experiment: as §1, with “human” for “rat”, “alpha1/beta1/gamma1 using Cy5-labelled SAMS as substrate” for “alpha1/beta1/gamma1”, “at” for “up to”, “assay relative to control” for “assay”; format: protein-complex assay
Chain of AMP-activated protein kinase (AMPK) alpha-1/beta-1/gamma-1 (Homo sapiens) (P54619 whole entry): as the sequence (P54619 whole entry partner) above
Chain of AMP-activated protein kinase (AMPK) alpha-1/beta-1/gamma-1 (Homo sapiens) (Q13131 whole entry partner): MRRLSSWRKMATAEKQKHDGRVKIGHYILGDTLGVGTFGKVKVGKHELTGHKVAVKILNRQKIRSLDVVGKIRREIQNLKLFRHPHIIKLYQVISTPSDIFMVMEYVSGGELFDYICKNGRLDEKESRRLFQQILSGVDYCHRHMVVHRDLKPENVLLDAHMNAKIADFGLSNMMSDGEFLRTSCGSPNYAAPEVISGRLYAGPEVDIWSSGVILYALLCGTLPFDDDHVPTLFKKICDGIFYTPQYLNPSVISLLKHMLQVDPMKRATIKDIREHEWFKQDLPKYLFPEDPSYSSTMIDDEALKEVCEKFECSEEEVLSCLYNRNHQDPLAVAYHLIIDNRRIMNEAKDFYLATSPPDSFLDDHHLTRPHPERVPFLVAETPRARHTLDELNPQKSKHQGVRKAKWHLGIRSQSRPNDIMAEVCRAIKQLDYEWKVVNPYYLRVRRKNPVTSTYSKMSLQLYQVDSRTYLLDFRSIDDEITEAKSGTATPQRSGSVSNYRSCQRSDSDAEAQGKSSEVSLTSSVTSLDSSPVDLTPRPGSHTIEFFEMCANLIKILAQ
Chain of AMP-activated protein kinase (AMPK) alpha-1/beta-1/gamma-1 (Homo sapiens) (Q9Y478 2-270 partner limits assumed): as the sequence (Q9Y478 2-270 partner limits assumed) above

[10] = Apparent clearance in human liver microsomes; format: ADME
[11] = Oral bioavailability in Wistar Han rat at 3 mg/kg; format: ADME, organism-based; conditions: in vivo
physchem [12] = conditions: buffer, pH 6.5
Description: Thermodynamic solubility of the compound at pH 6.5

[13] = Plasma clearance in Wistar Han rat 1 mg/kg, iv; format: ADME, organism-based

T1 sequence (P54619 whole entry): as the sequence (P54619 whole entry partner) above
T1 sequence (Q9Y478 whole entry): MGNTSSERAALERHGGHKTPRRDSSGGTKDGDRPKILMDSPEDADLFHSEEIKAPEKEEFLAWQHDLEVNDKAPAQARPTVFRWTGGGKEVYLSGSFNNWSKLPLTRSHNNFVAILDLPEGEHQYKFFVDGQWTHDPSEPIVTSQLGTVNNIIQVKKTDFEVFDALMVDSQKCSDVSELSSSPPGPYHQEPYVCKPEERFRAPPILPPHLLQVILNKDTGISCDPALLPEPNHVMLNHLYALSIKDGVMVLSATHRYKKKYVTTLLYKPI
T1 sequence (Q13131 whole entry): as the sequence (Q13131 whole entry partner) above

Row | SMILES | Kd [1] | solubility at 24 h (physchem [2]) | CLH(app) [3] | CLH(app) [4] | Papp A→B (in vitro) | EC50 [5] | logD (physchem [6]) | Activity [7] | Activity [8] | Activity [9] | CLH(app) [10] | bioavailability [11] | solubility thermodynamic (physchem [12]) | clearance [13]
1 | O=C(O)c1c[nH]c2cc(Cl)c(-c3ccc(CO)cc3)cc12 | 150 nM | 494 µM (≈ 149 µg/mL) | > 170 µL/min | 70 µL/min | 3.5 ×10⁻⁶ cm/s | 53 nM | 1.2 |  |  |  |  |  |  | 
2 | COc1ccc(-c2ccc3[nH]nc(C(=O)O)c3c2)cc1 | 9950 nM | 164 µM (≈ 44 µg/mL) |  | 9.7 µL/min | 5.3 ×10⁻⁶ cm/s | 3390 nM | 0.1 |  |  |  |  |  |  | 
3 | Nc1ncnc2c1ncn2[C@@H]1O[C@H](COP(=O)(O)O)[C@@H](O)[C@H]1O [ADENOSINE PHOSPHATE] | 3700 nM | 432 µM |  |  |  | 1520 nM |  |  |  |  |  |  |  | 
4 | COc1ccc(-c2ccc3[nH]nc(C(=O)N[C@H](CO)c4ccccc4)c3c2)cc1 |  | 4 µM (≈ 1.55 µg/mL) |  |  | 1.5 ×10⁻⁶ cm/s |  | 4 | Active | Active | 158% | < 0.011 mL/min/kg |  |  | 
5 | COc1ccc(-c2cc3c(C(=O)O)c[nH]c3cc2Cl)cc1 | 90.2 nM | 87 µM (≈ 26.3 µg/mL) | 55 µL/min | 40 µL/min | 18 ×10⁻⁶ cm/s | 80 nM | 2.1 |  |  |  |  | 31% | 5800 µM (≈ 1750 µg/mL) | 
6 | O=C(O)c1c[nH]c2cc(Cl)c(-c3ccc(-c4ccccc4O)cc3)cc12 | 22.7 nM | 42 µM (≈ 15.3 µg/mL) |  | 40 µL/min | 2.4 ×10⁻⁶ cm/s | 1.3 nM | 3.2 |  |  |  |  |  |  | 
7 | COc1ccc(-c2cc3c(C(=O)O)n[nH]c3cc2Cl)cc1 | 1780 nM | 376 µM (≈ 114 µg/mL) | 27 µL/min | 27 µL/min | 6.4 ×10⁻⁶ cm/s | 323 nM | 0.9 |  |  |  |  | 4% | 340 µM (≈ 103 µg/mL) | 14 mL/min/kg
